Measurements taken from patent US20070092551A1, “Therapeutic agent” (TAKARA BIO INC., priority 2003, published 2007).
Read-outs that look alike come from different tables or passages of the source.

Tests used:
[1] = target: T1, fusion protein of an yeast GAL4 DNA-binding domain and a human PPARγ ligand-binding site (Homo sapiens, UniProt P37231); experiment: PPARγ activation reporter assay in CV-1 cells; format: cell-based; conditions: test compound 10 μM, pFA-CMV (PPARγ), 24 hours
T1 construct: expressed in transfected cells; host or cells: CV-1 cells
T1 sequence (P37231 204-505): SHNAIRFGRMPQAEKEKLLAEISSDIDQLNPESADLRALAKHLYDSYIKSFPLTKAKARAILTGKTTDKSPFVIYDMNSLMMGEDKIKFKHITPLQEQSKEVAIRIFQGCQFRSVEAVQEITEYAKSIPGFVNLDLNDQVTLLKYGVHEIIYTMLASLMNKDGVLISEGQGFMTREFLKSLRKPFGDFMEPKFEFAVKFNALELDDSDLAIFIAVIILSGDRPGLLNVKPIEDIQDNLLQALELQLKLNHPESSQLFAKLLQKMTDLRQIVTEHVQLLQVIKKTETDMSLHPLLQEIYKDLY
Protocol: The activation ability for PPARγ was determined by a reporter assay using a fusion protein of an yeast GAL4 DNA-binding domain and a human PPARγ ligand-binding site.
A plasmid (pGAL4/GL3-Promoter) was prepared by repeating five times insertion of a binding site (UASg) of GAL4 into a multicloning site of a pGL3-Promoter vector (Promega). In addition, a ligand-binding site (amino acid sequence 204 to 505) of the PPARγ gene was cloned from a human liver cDNA library (manufactured by TAKARA BIO INC.) by a polymerase chain reaction, and the ligand-binding site was inserted into a multicloning site of a pFA-CMV plasmid vector ([…]) to give pFA-CMV (PPARγ).
Escherichia coli JM-109 strain was transformed with each of the two kinds of the plasmids obtained by the above-mentioned procedures, and pFA-CMV and pRL-TK (Promega) according to a conventional method. Each of the Escherichia coli cells was cultured with shaking at 37° C. for 18 hours in an LB medium containing 100 μg/mL ampicillin. Thereafter, the plasmids of each were purified according to the procedure manual of QIAfilter Plasmid midi Kit (QIAGEN).
CV-1 cells were seeded in a 24-well plate so as to have a density of 4×10^4 cells per well. Thereafter, the cells were cultured in a Dulbecco's modified Eagle's medium (manufactured by Sigma, D5796) containing 10% fetal bovine serine (manufactured by Bio Whittaker) for 24 hours under the conditions of 37° C. and 5% CO2. Thereafter, in accordance with the procedure manual of LipofectAmine 2000 (Invitrogen), the gene transfer was carried out into the CV-1 cells with 200 ng of pFA-CMV (PPARγ) or pFA-CMV, 400 ng of pGAL4/GL3-promoter, and 200 ng of pRL-TK per well, and thereafter the cells were cultured for 24 hours under the conditions of 37° C. and 5% CO2. Thereafter, the medium was exchanged with a Dulbecco's modified Eagle's medium to which a test compound dissolved in dimethyl sulfoxide was previously added so as to have a final concentration of 10 μM. Thereafter, the cells were cultured for additional 24 hours. In addition, there were set a group with addition of dimethyl sulfoxide in place of a test compound as a negative control, and a group with addition of troglytazone (manufactured by Calbiochem) so as to have a final concentration of 3 μM as a positive control. The cells were washed with a phosphate buffered saline, and 5× PassiveLysisBuffer (Promega) which was previously diluted in 5-folds with distilled water was added thereto in an amount of 100 μL per well. The mixture was shaken at room temperature for 15 minutes to lyse cells. Twenty microliters of this lysed solution was applied in accordance with the procedure manual of Dual Luciferase Assay System (Promega), and a fluorescent luciferase emission intensity and a Renilla mullerei luciferase emission intensity were measured using Mithras-LB940 (BERTHOLD TECHNOLOGIES GmbH). The enhancing action for transcriptional activation of each test compound was shown as a relative value obtained by calculating a ratio of the fluorescent luciferase emission intensity to the Renilla mullerei luciferase emission intensity, wherein the value of the group with addition of the negative control is defined as 1.

3T3-L1 cells = experiment: Induction of adipocyte differentiation (amount of triglyceride biosynthesis); format: cell-based; conditions: Mus musculus
Outline: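 3T3-L1 cells were grown 7 days in DMEM/10% FBS/200 μM ascorbic acid, then given test compound with 0.25 μM dexamethasone for 45 h, then compound alone for 7 days, re-dosed at medium changes. Hexane:isopropanol-extracted triglyceride was measured in duplicate; X=(S−N)/(P−N) versus DMSO (N) and insulin (P), ranked +++ to +/−.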

[2] = 3T3-L1, read-out: Action for Induction of Differentiation
[3] = 3T3-L1, X=(S−N)/(P−N) of amount of triglyceride, P=insulin positive control, read-out: Action for Induction of Differentiation
[4] = 3T3-L1, 3 μM, X=(S−N)/(P−N) of amount of triglyceride, P=insulin positive control, read-out: Action for Induction of Differentiation
[5] = 3T3-L1, 10 μM, X=(S−N)/(P−N) of amount of triglyceride, P=insulin positive control, read-out: Action for Induction of Differentiation

Compound | enhancing action for transcriptional activation (PPARγ) [1] | activation at 1.3 µM (3T3-L1 cells; 3T3-L1, 1.3 μM, X=(S−N)/(P−N) of amount of triglyceride, P=insulin positive control, read-out: Action for Induction of Differentiation) | activation at 4 µM (3T3-L1 cells; 3T3-L1, 4 μM, X=(S−N)/(P−N) of amount of triglyceride, P=insulin positive control, read-out: Action for Induction of Differentiation) | activation at 13 µM (3T3-L1 cells; 3T3-L1, 13 μM, X=(S−N)/(P−N) of amount of triglyceride, P=insulin positive control, read-out: Action for Induction of Differentiation) | activation at 3 µM (3T3-L1 cells; [2]) | activation at 10 µM (3T3-L1 cells; [2]) | activation at 1 µM (3T3-L1 cells; [3]) | activation at 3 µM (3T3-L1 cells; [4]) | activation at 10 µM (3T3-L1 cells; [5])
COc1ccc(C(=O)/C=C/c2ccc(O)cc2)c2c1CC(O)C(C)(C)O2 (stereo not drawn) [Xanthoangelol H] | no enhancing action for transcriptional activation was found | 30 to 60% | 60 to 100% | > 100% | – | – | – | – | –
COc1ccc(C(=O)/C=C/c2ccc(O)cc2)c(O)c1CC=C(C)C [4-Hydroxyderricin, 4,2′-Dihydroxy-3′-prenyl-4′-methoxychalcone] | no enhancing action for transcriptional activation was found | – | – | – | 60 to 100% | > 100% | – | – | –
CC(C)=CCC/C(C)=C/Cc1c(O)ccc(C(=O)/C=C/c2ccc(O)cc2)c1O [Xanthoangelol, 4,2′,4′-Trihydroxy-3′-geranylchalcone] | no enhancing action for transcriptional activation was found | – | – | – | – | – | 15 to 30% | 60 to 100% | > 100%
COc1ccc(C(=O)/C=C/c2ccc(O)cc2)c(O)c1C/C=C(\C)CCC=C(C)C [Xanthoangelol F, 4,2′-Dihydroxy-3′-geranyl-4′-methoxychalcone] | no enhancing action for transcriptional activation was found | – | – | – | – | – | 60 to 100% | > 100% | > 100%
